Series [1] relates to Orobanche minor. The series is described as follows: Germinative activity on parasitic plants. Type of series: in vivo. The settings on record: counted after 4 days. As to the method:
(§1) In this example, the germinative activity of the compounds in accordance with the invention (IIa) and (IIIb) and of the comparative compound GR24 was evaluated on the parasitic plants: Orobanche cumana, Orobanche minor, Striga hermonthica, Phelipanche ramosa (pv T and pv C).
(§2) The test protocol used was the following.
(§3) Seeds of Orobanche cumana Wallr. were collected from broomrapes parasitizing sunflower (Helianthus annuus L.), at Longeville-sur-mer, France, in 2009; seeds of clover broomrape (Orobanche minor Sm.) from a parasite of red clover (Trifolium pratense L.) were obtained from Professor K. Yoneyama (Utsunomiya University, Japan).
(§4) The seeds are stored dry in the dark at 25° C.
(§5) The compounds to be studied were resuspended in acetone at 10 mmol·l^−1, then diluted with water to 1 mmol·l^−1 (water/acetone; v/v; 99/1). Dilutions of 1×10^−3 mol·l^−1 to 1×10^−15 mol·l^−1 were then prepared in a water/acetone mixture (v/v; 99/1). Seeds of parasitic plants were surface-sterilized according to the protocol described in the publication by Vieira Dos Santos et al. (2003), then resuspended in sterile water (10 g·l^−1) and distributed on a 96-well plate (in a proportion of 50 μl, i.e. approximately 100 seeds per well). After preconditioning (7 days, 21° C., in the dark, plate hermetically sealed, except for the seeds of S. hermonthica, which were preconditioned at 30° C.), the compounds to be studied were added and the volumes adjusted to 100 μl with water (water/acetone; v/v; 999/1).
(§6) In a plate, a range of concentrations from 10^−13 mol·l^−1 to 10^−6 mol·l^−1 was applied for GR24 and (IIa) and from 10^−12 to 10^−5 mol·l^−1 for (IIIb). Controls were carried out with a water/acetone mixture (v/v; 999/1) and without seeds. The plates were incubated so as to allow germination (21° C., in the dark or 30° C. for Striga hermonthica.). After 4 days, the seeds which had germinated were counted under a stereomicroscope (SZX10, Olympus). The seeds were considered to have germinated when the radicle was sticking out of the seed tegument. Each germination test was repeated at least 3 times. For each compound tested, dose-response curves (g=f(c), where g is the germination percentage and c the concentration (mol·l^−1)), and the EC50 (median effective concentration) were modeled on the basis of a 4-parameter logistic curve calculated with SigmaPlot® 10.0.
(§7) The percentages of maximum germination induced by the compounds tested for each parasitic plant were determined.

For series [2], the system named is Orobanche cumana. The series is described as follows: Germinative activity on parasitic plants. Format: in vivo. The settings on record: counted after 4 days. As to the method:
as §1, §2, §3, §4, §5, §6, §7

The test system of series [3] is MRC5 cells. The series is described as follows: In vitro cytotoxicity study on MRC5 cells (MTS). The settings on record: Homo sapiens, MRC5, 72 hours, ± standard error, read-out: Percentage inhibition of MRC5 cell growth. Type of series: cell-based, human. As to the method:
The cytotoxicity of the compound (IIa) according to the invention, and that of GR24 and of GR5 as comparative compounds, was evaluated in vitro, at concentrations of 10^−4 M and 10^−5 M, on MRC5 cells, in DMSO, in the following way.
MRC5 cells (human lung (fibroblasts) were cultured in Dulbecco's modified Eagle medium (DMEM) supplemented with: 25 mM of glucose, 10% (v/v) of fetal calf serum, 100 IU of penicillin, 100 μg/ml of streptomycin and 1.5 μg/ml of fungizone, and kept under 5% of CO2 at 37° C.
96-well plates were seeded with 2100 MRC5 cells per well in 200 μl of medium. After 24 hours, each of the compounds dissolved in DMSO was added for 72 hours, at a final concentration of 10^−4 M or 10^−5 M in a fixed volume of DMSO. The controls received an equal volume of DMSO.
The viable cell number was measured at 490 nm with the MTS reagent (Promega), and, for each compound, the concentration causing 50% inhibition of cell growth, IC50, was calculated.

For series [4], the system named is pea rms1 mutants. The series is described as follows: Hydroponic culture test in pea. Format: in vivo, Pisum sativum L. The settings on record: 1 μM in hydroponic culture solution, 8 days; FIG. 12. As to the method:
For this example, ramosus (rms1) hyperbranched pea (Pisum sativum L.) mutants were used.
More particularly, rms1 (rms1-10) hyperbranched mutant plants were used. The nutritive solution (100%) was prepared by adding the following macronutrients to 1000 l of water: HNO3 (0.28 l), (NH4)2HPO4 (120 g), Ca(NO3)2 (40 g), Mg(NO3)2 (140 g), KNO3 (550 g), (NH4)2MoO4 (0.05 g), H3BO3 (15 g), MnSO4.H2O (2 g), ZnSO4.7H2O (1 g), CuSO4.5H2O (0.25 g), Sequestrene® (10 g) (Fe-EDTA solution). The pea seeds were germinated in moist sand for 6 days, then placed in holes of a lid (35 holes/lid, 20 mm in diameter) of an opaque PVC pot containing the hydroponic culture solution (47 l, pH 5.8).
In a first experiment, acetone or the compound to be tested (dissolved in acetone) was added to the hydroponic culture solution so as to obtain a final concentration of 0 or 1 μM of compound to be tested and 0.01% of acetone.
The hydroponic culture solution was continually aerated by means of an aquarium pump and replaced each week. 8 days after the start of the treatment, the lengths of bud/branch (nodes 1 to 6) were measured with an electronic sliding caliper.
This experiment was carried out for the compounds according to the invention (IIa) and (IIIb), and also the GR24 compound as comparative compound. A negative control (<<CTL 0>>), corresponding to a treatment with the solvent alone, was also carried out.
The results (mean data on 20 plants), in terms of, on the one hand, length of the branches at nodes 3 to 5 and, on the other hand, plant height, are shown respectively in FIGS. 11 and 12.
The same experiment was carried out for the compound in accordance with the invention (II″g) and the comparative compound GR24. Dimethyl sulfoxide (DMSO) or the compound to be tested, dissolved in DMSO, was added to the hydroponic culture solution so as to obtain a final concentration of 0 or 3 μM of compound to be tested and 0.01% of DMSO.
The results (mean data on 10 to 12 plants), in terms, on the one hand, of length of the branches at nodes 3 to 4 and, on the other hand, of plant height, are shown respectively in FIGS. 13 and 14.

In series [5] the test system is Striga hermonthica. Briefly: Germinative activity on parasitic plants. Format: in vivo. The settings on record: counted after 4 days, 30° C. The protocol:
as §1, §2
Seeds of Striga hermonthica (Del.) Benth were collected at Gadarif, Eastern Sudan, in 1999.
as §4, §5
as §6, with “The seeds were considered to have germinated when the radicle was sticking out of the seed tegument. Each germination test was repeated at least 3 times.” left out
as §7

The test system of series [6] is Phelipanche ramosa pv C. Briefly: Germinative activity on parasitic plants. Format: in vivo. The settings on record: counted after 4 days. The protocol:
as §1, §2
(§8) Two populations of Phelipanche ramosa were used in this study, pathovar (pv) C and T, described in the publication by Benharrat et al. (2005). Seeds of Phelipanche ramosa pathovar C were collected at Saint Martin de Fraigneau, France, on broomrapes parasitizing winter oilseed rape (Brassica napus L.) in 2005 and seeds of Phelipanche ramosa pathovar T were collected in Sarthe, France, on broomrapes developing on hemp (Cannabis sativa L.) in 2007.
as §4, §5, §6, §7

Series [7] concerns Phelipanche ramosa pv T. The series is described as follows: Germinative activity on parasitic plants. Format: in vivo. The settings on record: counted after 4 days. As to the method:
as §1, §2, §8, §4, §5, §6, §7

Series [8] relates to pea rms4 mutant. Type of series: in vivo, Pisum sativum L. The protocol:
The protocol used is in accordance with that described in example 4 above. Compound concentrations of 100 nM and 3 μM were tested. A negative control consisting of the solvent alone (<<CTL 0>>) was also tested.
The number of dead buds following the treatment with 3 μM of compound was also determined after 8 days of treatment (on groups of 48 plants).

A short description of series [9]: Stability in aqueous medium (UPLC, % nondegraded compound). The settings on record: second experiment, longer incubation times; 50 μg/ml in methanol/water: 1/4, pH 6.7, 21° C.; FIG. 2. Type of series: physicochemical. As to the method: The stability in aqueous medium of the compound (IIa) according to the invention and that of GR24 as comparative compound was evaluated in the following way.
Each compound was diluted in acetone (1 ml), then 50 μl of each solution were diluted with methanol (175 μl) and water (750 μl) so as to obtain a compound concentration of 50 μg/ml.
The aqueous solution thus obtained was incubated at 21° C. in HPLC vials.
Indanol (25 μl of a solution at 1 mg/ml in acetone) was added to each solution in order to serve as an internal standard.
The degradation of each compound over time was monitored by analysis of samples taken from the solution at various time intervals, by Ultra Performance Liquid Chromatograpy (UPLC) by means of an Acquity UPLC HSS C18 column (1.8 μm, 2.1×50 mm), eluted first of all with a solution of acetonitrile at 5% in water containing 0.1% of formic acid, for 0.5 min, then with a gradient of 5% to 100% of acetonitrile in water containing 0.1% of formic acid, for 6.5 min, and with 100% of acetonitrile containing 0.1% of formic acid for 3 min. The column was maintained at a temperature of 40° C., with a flow of 0.6 ml/min.
The compounds eluted from the column were detected with a photodiode array detector.
The relative amount of nondegraded compound in the solution was determined by comparison with the internal standard.
In a second experiment, the stability in aqueous medium of the compounds (IIa) and (IIIb) according to the invention, and that of GR24 as comparative compound, was evaluated according to the protocol described above.

Take `CC1=CC(O/C=C2/C(=O)OC3c4ccccc4C[C@H]23)OC1=O` (stereo partly shown) [GR24, reference compound]: the “Percentage of maximum germination induced” value in series [1] came out at 81 ± 5%; in series [2], 78 ± 5%; in series [5], 57 ± 5%; in series [6], 89 ± 6%; in [7] it was 87 ± 7%. Further, in series [3] (10^−4M), the inhibition at 100 µM worked out at 97 ± 1%. For the same compound, the inhibition at 10 µM in series [3] (10^−5M) amounted to 0%. Further, in series [4], the plant height entry was “significant effect on plant height is also demonstrated, comparable between the comparative compound GR24 and the compound in accordance with the invention (IIa)”.

Regarding `COC(=O)/C=C/C(C)=C/OC1OC(=O)C(C)=C1C` (stereo not shown) [Compound (IIIb)], the “Percentage of maximum germination induced” value in [1] is 60 ± 6%; in series [2], “no (no significant germination compared to the negative control (<2%))”; in [5], “no (no significant germination compared to the negative control (<2%))”; in series [6] it was “no (no significant germination compared to the negative control (<2%))”; in series [7], 88 ± 6%. Besides, the “length of bud/branch at node 3 (toxicity)” value in [8] (100 nM and 3 μM, 8 days after treatment at node 3, FIG. 15) was “absence of effects of the compounds in accordance with the invention (IIa) and (IIIb) compared with a negative control, and between the two treatment doses”. Further, the “number of dead buds after treatment” value in series [8] (3 μM, 8 days of treatment, groups of 48 plants, FIG. 16) is on record as “did not cause the death of any bud”. Besides, in series [9], the “chemical stability in aqueous solution (% of nondegraded compound as a function of incubation time)” value is “even better than that of the compound (IIa)”.

For orientation: inhibition means how much of the control response was suppressed.

For the origin of these results see patent US9532569B2 (INSTITUT NATIONAL DE LA RECHERCHE AGRONOMIQUE, priority 2012, dated 2017).
